In one experiment the test system is T1, MsCCR-like1.
T1 construct: His-tagged, pET-28a, E. coli BL21, Ni-NTA; tag removal not mentioned
The experiment in a line: NADPH oxidation, decrease of A366. It counts as biochemical, Medicago sativa. Particulars: NADPH 160 μM, 1x PBS, substrate 30-150 μM. From the text: NADPH oxidation, decrease of A366 on MsCCR-like1

For a further experiment, the system named is T2, MsCCR1.
T2 construct: gene CCR1; His-tagged, pET-28a, E. coli BL21, Ni-NTA; tag removal not mentioned
The experiment in a line: NADPH oxidation, decrease of A366. It counts as biochemical, Medicago sativa. Particulars: NADPH 160 μM, 1x PBS, substrate 30-150 μM. From the text: NADPH oxidation, decrease of A366 on MsCCR1

Setting [1] is: read-out: p-Coumaroyl-CoA / K m.

Each structure is given as a SMILES string. Like-named read-outs stand apart in the source and are kept apart here.

Regarding `CC(C)(COP(=O)(O)OP(=O)(O)OC[C@H]1O[C@@H](n2cnc3c(N)ncnc32)[C@H](O)[C@@H]1OP(=O)(O)O)[C@@H](O)C(=O)NCCC(=O)NCCSC(=O)/C=C/c1ccc(O)cc1` [p-Coumaroyl-CoA], the values for the Km in the experiment on MsCCR-like1 (setting [1]) and in the experiment with MsCCR1 (setting [1]) were 44.1 ± 7.12 µM and 24.2 ± 4.51 µM, respectively.

Turning to `CC(C)(COP(=O)(O)OP(=O)(O)OC[C@H]1O[C@@H](n2cnc3c(N)ncnc32)[C@H](O)[C@@H]1OP(=O)(O)O)[C@@H](O)C(=O)NCCC(=O)NCCSC(=O)/C=C/c1ccc(O)c(O)c1` [Caffeoyl-CoA], the Km in the experiment with MsCCR-like1 (read-out: Caffeoyl-CoA / K m) stood at 48.2 ± 1.75 µM.

Consider `COc1cc(/C=C/C(=O)SCCNC(=O)CCNC(=O)[C@H](O)C(C)(C)COP(=O)(O)OP(=O)(O)OC[C@H]2O[C@@H](n3cnc4c(N)ncnc43)[C@H](O)[C@@H]2OP(=O)(O)O)ccc1O` [Feruloyl-CoA], for which the Km in the experiment on MsCCR1 (read-out: Feruloyl-CoA / K m) was found to be 45.2 ± 11.4 µM.

For the molecule `COc1cc(/C=C/C(=O)SCCNC(=O)CCNC(=O)[C@H](O)C(C)(C)COP(=O)(O)OP(=O)(O)OC[C@H]2O[C@@H](n3cnc4c(N)ncnc43)[C@H](O)[C@@H]2OP(=O)(O)O)cc(OC)c1O` [Sinapoyl-CoA], the Km in the experiment with MsCCR1 (read-out: Sinapoyl-CoA / K m) amounted to 10.6 ± 1.25 µM.

These data come from article PMC9316543, “Characterization, Expression Profiling, and Biochemical Analyses of the Cinnamoyl-CoA Reductase Gene Family for Lignin Synthesis in Alfalfa Plants” (International Journal of Molecular Sciences, 2022).
